Experimental data reported in patent publication US6191290A, “Taxane derivatives for targeted therapy of cancer” (UAB Research Foundation, priority 2000, dated 2001).

What was measured:
[1] = Solubility in aqueous and organic solvents; format: physicochemical; conditions: unconjugated peptide
From the text: Prior to the biological evaluation of this compound, two key issues needed to be addressed: The overall water solubility and the cell surface receptor binding ability of the conjugate.

[2] = tested on: NCI-H1299 cells; assay: Cytotoxicity assay at day 4 against NCI-H1299 cells, conjugate versus underivatized paclitaxel
Description: To evaluate the cytotoxic effects of the paclitaxel conjugate, experiments were designed to compare these effects with the underivatized, unconjugated paclitaxel.
To evaluate the cytotoxic activity of the conjugate relative to the intact, underivatized paclitaxel on the NCI-H1299 cells, 25 nM and 50 nM samples of paclitaxel and 10 nM and 30 nM solutions of the conjugate were incubated with the cells and the survival was assessed on day 4.

[3] = tested on: G18 human astrocytoma cells; conditions: cited from earlier work
[4] = tested on: Burkitts lymphoma xenografts; conditions: nude mice bearing Burkitts lymphoma xenografts; cited from earlier work
[5] = clinical trials; cited from earlier work
[6] = Homo sapiens, NCI-H1299, 96 h, read-out: cytotoxicity (cell destruction)
[7] = Homo sapiens, NCI-H1299, 96 h, read-out: growth inhibition / cell destruction

Compound	solubility [1]	cytotoxicity at 0.01 µM [2, 6] [%]	cytotoxicity at 0.025 µM [2, 6] [%]	inhibition at 0.025 µM [2, 7] [%]	inhibition at 0.05 µM [2, 7] [%]	cytotoxicity (cell destruction) ([2]; human, nci-h1299 cells, 96 h, 0.01 µM) [%]	radiosensitizing effect [3]	radiosensitizing effect [4]	reported side effects [5]
CC(C)C[C@H](NC(=O)[C@H](Cc1cnc[nH]1)NC(=O)CNC(=O)[C@@H](NC(=O)[C@H](C)NC(=O)[C@H](Cc1c[nH]c2ccccc12)NC(=O)[C@@H](N)CCC(N)=O)C(C)C)C(N)=O [BBN[7-13]]	soluble only in DMF and alcohols								
CC(=O)O[C@H]1C(=O)[C@@]2(C)[C@H]([C@H](OC(=O)c3ccccc3)[C@]3(O)C[C@H](OC(=O)[C@H](O)[C@@H](NC(=O)c4ccccc4)c4ccccc4)C(C)=C1C3(C)C)[C@]1(OC(C)=O)CO[C@@H]1C[C@@H]2O [paclitaxel]		0	20	23	51	0	radiosensitizing effect	radiosensitizing effect	neutropenia, mucositis, cardiac and neurological toxicities in addition to hypersensitivity
